According to US20230226152A1, “INTERLEUKIN-2 POLYPEPTIDE CONJUGATES AND METHODS OF USE THEREOF” (Ambrx, Inc., priority 2020, published 2023):

Test system: CTLL-2 cells
Assay: CTLL-2 cell expansion / proliferation (binding) assay
Type: cell-based
Experimental: T cell expansion test of IL-2 variants in CTLL-2 cells. CTLL-2 cell expansion assay was performed using transiently expressed F42 variant supernatant from transfected engineered CHO cells. […] Cell proliferation was performed using Cell Titer Glo (Promega, WI). Luminescent signal was read on TECAN genios pro. […] A general procedure for studying the IL-2 variants of the present invention is shown in the following:
Utilizing a CTLL-2 cell expansion assay as disclosed in the Examples, 20 different IL-2 variants including 16 originally selected sites (wild type included) and 4 additional sites (K32, K48, K49, K76) known in the art were screened (Charych, D., et al., PLoS One, 12(7): p. e0179431, 2017). […] Identified variants were further analyzed for their binding capabilities after PEGylation.

What does the source list for “F42: IL-2 with unnatural amino acid (pAF) at F42, SEQ ID NO: 9”?
EC50 (transiently expressed variant supernatant from engineered CHO cells, Cell Titer Glo): around 0.24 ng/mL; function retained compared to wild type control (wild type IL-2 = 100% proliferation): 95%
